Data: patent US11186565B2, “Aromatic compound” (TAKEDA PHARMACEUTICAL COMPANY LIMITED, priority 2017, dated 2021)

biological target: T1, human GPR40 (Homo sapiens, UniProt O14842); experiment: Human GPR40 agonist activity with increase in intracellular Ca2+ concentration as an index; assay type: cell-based; settings: test compound at final concentration 1 μM; CHO(dhfr−) cells stably expressing human GPR40; FLIPR Ca2+ fluorescence; 100% = 10 μM compound of WO 2015/020184 Example 153, 0% = DMSO
T1 construct: expressed in transfected cells
T1 sequence (O14842 whole entry): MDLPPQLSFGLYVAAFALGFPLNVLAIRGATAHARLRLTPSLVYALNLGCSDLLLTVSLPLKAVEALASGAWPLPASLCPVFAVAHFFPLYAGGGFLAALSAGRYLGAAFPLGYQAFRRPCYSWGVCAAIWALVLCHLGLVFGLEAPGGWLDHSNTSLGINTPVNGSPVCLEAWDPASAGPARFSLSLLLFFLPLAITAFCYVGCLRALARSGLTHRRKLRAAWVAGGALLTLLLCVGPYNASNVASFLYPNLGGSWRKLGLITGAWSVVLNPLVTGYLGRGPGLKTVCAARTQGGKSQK
Description: Evaluation of Human GPR40 Agonist Activity with Increase in Intracellular Ca^2+ Concentration as an Index
CHO(dhfr−) cells that stably expressed human GPR40 were suspended in MEMα (Wako Pure Chemical Industries, Ltd.) containing 10% dialyzed serum (Thermo Fisher Scientific), 10 mM HEPES (Thermo Fisher Scientific), 100 U/mL penicillin, 100 μg/mL streptomycin (Wako Pure Chemical Industries, Ltd.), and plated on a 384 well black/clear cell culture plate at 10,000 cells/well. After culture overnight in a CO2 incubator at 37° C., the culture supernatant was removed, and loading buffer [Ca^2+ probe attached to Calcium Kit II-iCellux (DOJINDO) was dissolved in assay buffer (20 mM HEPES, 0.1% fatty acid-free BSA (Wako Pure Chemical Industries, Ltd.), 2.5 mM probenecid (DOJINDO)-containing HESS (Thermo Fisher Scientific))] was added at 30 μL/well. After leaving for 1 hr at room temperature under light shielding, assay buffer containing the test compound at a final concentration of 1 μM was added at 10 μL/well in fluorescence plate reader FLIPR Tetra (Molecular Devices), and the fluorescence amount was successively measured. Human GPR40 agonist activity was calculated using an increase in the intracellular Ca^2+ concentration as an index, wherein the activity of 10 μM of the compound of WO 2015/020184 (Example 153: 3-cyclopropyl-3-(2-((1-(2-((2-fluoro-2-methylpropyl)(4-methylpyridin-2-yl)carbamoyl)-5-methoxyphenyl)piperidin-4-yl)methoxy)pyridin-4-yl)propanoic acid) was 100%, and the activity when DMSO was added instead of the test compound was 0%.

Going from COc1cc(N2CCC(COc3cc([C@@H](CC(=O)O)C4CC4)ccn3)CC2)c(NCC(F)(F)C(F)(F)F)cn1 [Example 6, (3S)-3-cyclopropyl-3-(2-((1-(2-methoxy-5-((2,2,3,3,3-pentafluoropropyl)amino)pyridin-4-yl)piperidin-4-yl)methoxy)pyridin-4-yl)propanoic acid] to COc1cc(N2CCC(COc3cc([C@@H](CC(=O)O)C4CC4)ccn3)CC2)c(C2CCN(CC(F)(F)F)CC2)cn1 [Example 4, (3S)-3-cyclopropyl-3-(2-((1-(2-methoxy-5-(1-(2,2,2-trifluoroethyl)piperidin-4-yl)pyridin-4-yl)piperidin-4-yl)methoxy)pyridin-4-yl)propanoic acid], the “activity (human GPR40 agonist activity)” value rises from 106% to 110%.

First: COc1ccc(C2CCN(CC(F)(F)F)CC2)c(O[C@H]2CC[C@H](Oc3cc(C(CC(=O)O)C4CC4)ccn3)CC2)c1 (stereo partly drawn) [Example 1, 3-cyclopropyl-3-(2-((trans-4-(5-methoxy-2-(1-(2,2,2-trifluoroethyl)piperidin-4-yl)phenoxy)cyclohexyl)oxy)pyridin-4-yl)propanoic acid]
Second: COc1ccc(-c2cnc(OCC(F)(F)F)nc2)c(O[C@H]2CC[C@H](Oc3cc(C(CC(=O)O)C4CC4)ccn3)CC2)c1 (stereo partly drawn) [Example 3, 3-cyclopropyl-3-(2-((trans-4-(5-methoxy-2-(2-(2,2,2-trifluoroethoxy)pyrimidin-5-yl)phenoxy)cyclohexyl)oxy)pyridin-4-yl)propanoic acid]
The “activity (human GPR40 agonist activity)” value of the first is higher: 86% for the first, 84% for the second.

For COc1ccc(-c2ccc(OC)nc2)c(O[C@H]2CC[C@H](Oc3cc(C(CC(=O)O)C4CC4)ccn3)CC2)c1 (stereo partly drawn) [Example 7, 3-cyclopropyl-3-(2-((trans-4-(5-methoxy-2-(6-methoxypyridin-3-yl)phenoxy)cyclohexyl)oxy)pyridin-4-yl)propanoic acid], the “activity (human GPR40 agonist activity)” value was 80%.
